Results: publication PMC12718081 (ACS Infectious Diseases, 2025)
“Also recorded” adds a separate entry of the source. Like-named read-outs stand apart in the source and are kept apart here.

How the values were obtained:
S. mansoni schistosomula = test: Roboworm high-content screening assay on schistosomula (motility and phenotype scores); format: cell-based, Schistosoma mansoni; conditions: 72 h
Experimental: All PZQ derivatives were synthesized in the racemic form and evaluated as such. The compounds were initially screened at 10 μM against S. mansoni schistosomula using the Roboworm high-content screening assay , and were declared hits or nonhits based on their effect on parasites’ motility and phenotype scores after 72 h of incubation. As none of the compounds were considered hits at this concentration, we performed a titration from 6.25 to 50 μM (Figure S27).
DMSO was included as a negative control. Compounds were considered hits if both their motility and phenotype scores were lower than −0.35 and −0.15, respectively (region delimited by the dashed lines). In red, PZQ analogues selected for further analysis.
For the collection of schistosomula, B. glabrata snails infected with S. mansoni were shed for 2 h under light at 26 °C. Cercariae were collected, mechanically transformed into schistosomula as previously described.
DMSO (0.625%, v/v) was included as a negative control. Z′ values for the assay were calculated to be 0.542 for phenotype and 0.361 for motility. […]
Auranofin (AUR) was included at 10 µM as positive control. DMSO was included as a negative control. Compounds were considered hits if both their motility and phenotype scores were lower than -0.35 and -0.15, respectively (region delimited by the […]

[1] = tested on: adult schistosomes (male and female worms); test: Adult worm ex vivo high-content image-based motility assay; format: cell-based, Schistosoma mansoni
Experimental: Adult schistosomes’ motility was determined using a high-content assay previously developed by our group, , with images analyzed in CellProfiler software. More details are provided in the Supporting Information.
(§1) Adult worm ex-vivo high-content assay
(§2) “Area” and “False Negative Rate” from the MeasureObjectSizeShape and MeasureObjectOverlap modules, respectively. These measurements were then modeled by a multilevel generalized linear statistical model. The effects of the experimental treatments on […]
(§3) The half-maximal inhibitory
(§4) Windows (GraphPad Software, Boston, MA, USA; www.graphpad.com). […]
with DMSO as a negative control.

Sm.TRPMPZQ (wild-type) = Sm.TRPMPZQ (wild-type) (Schistosoma mansoni, UniProt A0A5K4F0X5); test: Ca2+ reporter (FLIPR) activation assay, wild-type Sm.TRPMPZQ in HEK293 cells; format: cell-based
Experimental: The Ca^2+ reporter assay was performed using a Fluorescence Imaging Plate Reader (FLIPR) system, as described in the Supporting Information. […]
as §3, §4
(§5) with DMSO as a negative control. […]
(§6) reader. […] The fluorescence
(§7) Untransfected HEK293 cells were used as a control.
(§8) 10% fetal bovine serum (FBS). […]
(§9) atmosphere containing 5% CO₂. Following incubation, the growth medium was removed and […]
(§10) buffer containing 2.5 mM probenecid in HBSS (with Ca²⁺ and Mg²⁺), 20 mM HEPES, 0.3% BSA (Sigma, A7030), and 0.03% L-ascorbic acid (Sigma). Cells were incubated for 40 minutes at 37 °C and subsequently for 20 minutes at room temperature. […]
prepared in assay buffer without dye and probenecid and dispensed into separate flat-bottom 384-well plates. Calcium flux measurements were performed at room temperature using a […]
(§11) instrument (Molecular Devices). Baseline fluorescence was recorded for 20 seconds, followed by the addition of 5 µL of each drug solution, after which fluorescence was measured continuously for 250 seconds. […]

Eg.TRPMPZQ = Eg.TRPMPZQ (Echinococcus granulosus, UniProt W6UVV9); test: cell-based; conditions: HEK293, Ca2+ reporter, mean ± standard deviation; read-out: Bmax, Eg.TRPMPZQ activation
Sm.TRPMPZQ L1515A mutant = test: Ca2+ reporter activation assay, Sm.TRPMPZQ point mutant L1515A; format: cell-based, Schistosoma mansoni; conditions: 100 μM
Experimental: This trend likely indicates a similar binding mode.
The colored cells represent the range of EC50 values for each compound based on their ability to activate the channel.
(§12) The Ca^2+ reporter assay was performed using a Fluorescence Imaging Plate Reader (FLIPR) system, as described in the Supporting Information.
as §1, §2, §3, §4, §5, §6, §7, §8, §9, §10, §11

Sm.TRPMPZQ = test: Ca2+ reporter assay in antagonist mode (block of PZQ activation of Sm.TRPMPZQ); format: cell-based, Schistosoma mansoni; conditions: preincubation 1 nM-100 μM for 10 min, data not shown
Experimental: as §12, §1, §2, §3, §4, §5, §6, §7, §8, §9
buffer containing 2.5 mM probenecid in HBSS (with Ca²⁺ and Mg²⁺), 20 mM HEPES, 0.3% BSA (Sigma, A7030), and 0.03% L-ascorbic acid (Sigma). Cells were incubated for 40 minutes at 37 °C and subsequently for 20 minutes at room temperature. A total of seven PZQ derivatives were tested, using racemic PZQ included as a positive control on each assay plate. Drug dilutions were prepared in assay buffer without dye and probenecid and dispensed into separate flat-bottom 384-well plates. Calcium flux measurements were performed at room temperature using a […]
as §11
schistosomula after 72h of incubation using the Roboworm high-content screening assay. Auranofin (AUR) was included at 10 µM as positive control. DMSO was included as a negative control. Compounds were considered hits if both their motility and phenotype scores were lower than -0.35 and -0.15, respectively (region delimited by the […]
(1 picture or pasted object on this page, not shown here)

[2] = tested on: juvenile schistosomes (21 days p.i.); test: XTT juvenile viability assay; format: cell-based, Schistosoma mansoni; conditions: 48 h
Fh.TRPMPZQ = tested on: Fh.TRPMPZQ; design: method as in number not given; conditions: background statement; ref number not given; cited from earlier work
Sm.TRPMMCLZ = tested on: Sm.TRPMMCLZ; design: method as in number not given; conditions: background statement; ref number not given; cited from earlier work
S. mansoni = tested on: S. mansoni; design: method as in numbers not given; conditions: ref numbers not given, cited from earlier work
juvenile schistosomes = test: Microscopy analysis of juvenile morphology and motility (viability score 0-3); conditions: 72 h

Sequence of Sm.TRPMPZQ (wild-type) (A0A5K4F0X5 entry or part of it): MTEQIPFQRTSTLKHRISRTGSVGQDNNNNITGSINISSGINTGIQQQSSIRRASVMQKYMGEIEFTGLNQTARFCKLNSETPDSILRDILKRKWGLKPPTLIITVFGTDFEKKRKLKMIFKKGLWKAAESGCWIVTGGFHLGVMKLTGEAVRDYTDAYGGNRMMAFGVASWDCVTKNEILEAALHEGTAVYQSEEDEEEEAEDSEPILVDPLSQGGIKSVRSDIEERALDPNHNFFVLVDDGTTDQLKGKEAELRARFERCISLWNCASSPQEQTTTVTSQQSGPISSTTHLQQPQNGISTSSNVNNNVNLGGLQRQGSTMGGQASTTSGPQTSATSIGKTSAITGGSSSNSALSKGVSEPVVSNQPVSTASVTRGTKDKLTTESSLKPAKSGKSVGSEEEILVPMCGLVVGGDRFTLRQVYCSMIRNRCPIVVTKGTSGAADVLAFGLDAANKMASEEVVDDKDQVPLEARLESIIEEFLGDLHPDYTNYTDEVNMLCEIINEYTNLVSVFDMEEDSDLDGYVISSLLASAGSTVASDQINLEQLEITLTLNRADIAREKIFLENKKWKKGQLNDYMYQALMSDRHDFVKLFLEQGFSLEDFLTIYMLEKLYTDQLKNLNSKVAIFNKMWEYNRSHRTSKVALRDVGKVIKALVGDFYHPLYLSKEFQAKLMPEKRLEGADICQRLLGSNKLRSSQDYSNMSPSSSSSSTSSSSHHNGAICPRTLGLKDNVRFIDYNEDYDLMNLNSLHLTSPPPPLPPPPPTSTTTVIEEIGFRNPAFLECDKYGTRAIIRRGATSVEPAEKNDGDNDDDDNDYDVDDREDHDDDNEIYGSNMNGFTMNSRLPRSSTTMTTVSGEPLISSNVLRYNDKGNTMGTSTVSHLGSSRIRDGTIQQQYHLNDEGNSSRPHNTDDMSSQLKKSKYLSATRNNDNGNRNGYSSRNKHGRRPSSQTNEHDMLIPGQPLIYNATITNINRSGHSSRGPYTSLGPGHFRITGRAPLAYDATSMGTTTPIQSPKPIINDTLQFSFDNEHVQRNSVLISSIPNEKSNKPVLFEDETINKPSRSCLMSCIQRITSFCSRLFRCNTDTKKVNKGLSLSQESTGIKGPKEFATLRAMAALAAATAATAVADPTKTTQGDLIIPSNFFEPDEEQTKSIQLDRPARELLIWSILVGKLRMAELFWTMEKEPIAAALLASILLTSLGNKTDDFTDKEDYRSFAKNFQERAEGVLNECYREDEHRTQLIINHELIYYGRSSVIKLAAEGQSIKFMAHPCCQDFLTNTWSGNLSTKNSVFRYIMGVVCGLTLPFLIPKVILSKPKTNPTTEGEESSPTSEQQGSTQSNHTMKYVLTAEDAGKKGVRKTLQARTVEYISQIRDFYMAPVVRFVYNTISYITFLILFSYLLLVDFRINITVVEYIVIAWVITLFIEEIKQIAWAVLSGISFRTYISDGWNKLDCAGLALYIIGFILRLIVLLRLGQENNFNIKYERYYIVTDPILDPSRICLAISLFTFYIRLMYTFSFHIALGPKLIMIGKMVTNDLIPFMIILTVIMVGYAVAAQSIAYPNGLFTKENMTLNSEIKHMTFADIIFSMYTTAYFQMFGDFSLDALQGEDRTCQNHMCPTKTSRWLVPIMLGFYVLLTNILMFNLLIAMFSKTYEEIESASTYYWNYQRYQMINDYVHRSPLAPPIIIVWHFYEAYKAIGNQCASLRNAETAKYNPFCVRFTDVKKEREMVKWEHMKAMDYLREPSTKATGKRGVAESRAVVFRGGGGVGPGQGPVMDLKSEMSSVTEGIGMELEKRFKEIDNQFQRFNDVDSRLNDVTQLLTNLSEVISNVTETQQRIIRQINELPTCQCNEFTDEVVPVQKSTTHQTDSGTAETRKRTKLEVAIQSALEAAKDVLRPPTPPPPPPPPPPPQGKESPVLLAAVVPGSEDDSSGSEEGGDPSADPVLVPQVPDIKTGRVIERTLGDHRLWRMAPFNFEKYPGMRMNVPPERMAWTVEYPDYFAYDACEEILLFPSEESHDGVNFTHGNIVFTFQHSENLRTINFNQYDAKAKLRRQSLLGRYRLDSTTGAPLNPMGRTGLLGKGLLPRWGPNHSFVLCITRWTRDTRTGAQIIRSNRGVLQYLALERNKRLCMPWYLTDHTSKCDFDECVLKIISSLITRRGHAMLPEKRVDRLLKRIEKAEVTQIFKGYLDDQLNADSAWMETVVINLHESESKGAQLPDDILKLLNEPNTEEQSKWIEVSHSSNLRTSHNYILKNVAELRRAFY
Sequence of Eg.TRPMPZQ (W6UVV9 entry or part of it): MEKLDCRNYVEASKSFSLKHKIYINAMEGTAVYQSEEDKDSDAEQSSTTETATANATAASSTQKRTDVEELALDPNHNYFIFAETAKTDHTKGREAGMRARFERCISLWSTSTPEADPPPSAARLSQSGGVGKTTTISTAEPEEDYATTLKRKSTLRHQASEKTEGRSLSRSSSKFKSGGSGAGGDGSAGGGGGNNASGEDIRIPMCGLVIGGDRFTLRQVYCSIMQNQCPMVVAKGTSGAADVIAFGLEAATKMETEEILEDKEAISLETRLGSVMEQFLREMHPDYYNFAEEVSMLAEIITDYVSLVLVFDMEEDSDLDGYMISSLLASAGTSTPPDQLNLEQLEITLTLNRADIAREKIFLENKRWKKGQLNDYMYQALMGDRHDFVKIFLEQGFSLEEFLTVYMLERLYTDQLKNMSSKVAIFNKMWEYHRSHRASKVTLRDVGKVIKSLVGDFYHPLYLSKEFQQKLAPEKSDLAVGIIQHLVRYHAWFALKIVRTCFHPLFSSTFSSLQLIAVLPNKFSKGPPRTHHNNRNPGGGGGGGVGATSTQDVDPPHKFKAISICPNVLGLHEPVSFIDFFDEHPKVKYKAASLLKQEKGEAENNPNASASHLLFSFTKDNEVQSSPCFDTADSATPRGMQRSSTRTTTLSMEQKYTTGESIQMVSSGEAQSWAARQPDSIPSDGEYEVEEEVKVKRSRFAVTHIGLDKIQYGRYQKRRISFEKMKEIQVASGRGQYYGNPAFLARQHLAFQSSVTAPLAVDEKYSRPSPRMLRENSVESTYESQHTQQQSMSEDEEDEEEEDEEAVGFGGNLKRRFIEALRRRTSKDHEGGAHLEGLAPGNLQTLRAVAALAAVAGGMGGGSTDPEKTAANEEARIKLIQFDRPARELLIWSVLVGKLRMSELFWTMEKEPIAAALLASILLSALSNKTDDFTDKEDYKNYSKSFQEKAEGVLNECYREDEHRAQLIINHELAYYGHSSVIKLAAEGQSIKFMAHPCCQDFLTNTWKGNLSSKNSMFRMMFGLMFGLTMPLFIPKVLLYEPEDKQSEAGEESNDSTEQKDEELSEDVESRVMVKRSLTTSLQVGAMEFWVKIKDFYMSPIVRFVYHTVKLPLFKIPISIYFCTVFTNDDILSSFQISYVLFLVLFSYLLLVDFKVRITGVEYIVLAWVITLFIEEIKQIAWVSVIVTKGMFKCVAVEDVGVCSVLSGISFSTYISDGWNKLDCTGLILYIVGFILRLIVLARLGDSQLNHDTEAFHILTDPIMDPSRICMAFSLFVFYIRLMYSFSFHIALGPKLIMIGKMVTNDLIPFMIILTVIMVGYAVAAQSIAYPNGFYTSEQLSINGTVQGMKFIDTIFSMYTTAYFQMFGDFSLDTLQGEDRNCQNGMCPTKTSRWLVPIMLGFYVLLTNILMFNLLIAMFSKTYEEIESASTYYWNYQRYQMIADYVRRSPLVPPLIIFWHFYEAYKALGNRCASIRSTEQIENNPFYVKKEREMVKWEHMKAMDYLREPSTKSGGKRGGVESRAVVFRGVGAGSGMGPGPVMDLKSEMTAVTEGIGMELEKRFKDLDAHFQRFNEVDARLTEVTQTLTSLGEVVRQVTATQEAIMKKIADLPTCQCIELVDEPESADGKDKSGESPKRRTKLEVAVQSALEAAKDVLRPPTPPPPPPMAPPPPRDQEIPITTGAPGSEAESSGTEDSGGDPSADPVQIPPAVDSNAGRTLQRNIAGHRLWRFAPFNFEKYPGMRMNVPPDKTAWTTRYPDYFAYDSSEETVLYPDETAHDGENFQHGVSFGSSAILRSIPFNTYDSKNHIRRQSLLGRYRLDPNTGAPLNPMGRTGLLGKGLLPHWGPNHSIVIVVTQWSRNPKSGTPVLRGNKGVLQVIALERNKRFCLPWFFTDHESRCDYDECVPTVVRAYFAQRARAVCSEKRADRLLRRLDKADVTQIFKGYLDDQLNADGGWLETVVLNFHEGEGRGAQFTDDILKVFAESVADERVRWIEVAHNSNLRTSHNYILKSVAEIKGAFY

O=C(C1CCCCC1)N1CC(=O)N2CCc3ccc(-n4cc(C5(O)CCCCC5)nn4)cc3C2C1 (stereo not drawn) [Compound 5d]
hit classification (motility and phenotype scores) (S. mansoni schistosomula; 50 μM, hit if motility < -0.35 and phenotype < -0.15): inactive
activity against adult worms ([1]; data not shown): inactive
Bmax, wild-type Sm.TRPMPZQ activation (Sm.TRPMPZQ (wild-type)): No activity
EC50 for wild-type Sm.TRPMPZQ activation (Sm.TRPMPZQ (wild-type); 0.001 to 100 μM): failed to activate; also recorded: No activity
Emax (Eg.TRPMPZQ): 94 ± 4.08%
activation of Sm.TRPMPZQ mutant form L1515A (Sm.TRPMPZQ L1515A mutant): activated
block of PZQ activation of Sm.TRPMPZQ (antagonist mode) (Sm.TRPMPZQ): failed to impact subsequent responses to PZQ

O=C(C1CCCCC1)N1CC(=O)N2CCc3ccccc3C2C1 (stereo not drawn) [PZQ, Praziquantel, reference compound]
hit classification (motility and phenotype scores) (S. mansoni schistosomula; 6.25 μM): not classified as a hit
parasite metabolic activity compared to the DMSO control group (XTT) ([2]; 100 μM): significantly decreased
viability at 100 µM ([2]; Schistosoma mansoni, mean ± SD, read-out: juvenile worm viability (XTT, % residual viability)): 71.5%
EC50 ([1]; Schistosoma mansoni, 0 h, male adult worms, 0 h (immediately after addition), single experiment or geometric mean, read-out: Male worm motility inhibition (EC50)): 280 nM
EC50 ([1]; Schistosoma mansoni, 0 h, male, 0 h, individual experiments, read-out: Male worm motility inhibition (EC50), values of independent experiments): 300 nM
EC50 ([1]; Schistosoma mansoni, 24 h, male adult worms, 24 h, single experiment or geometric mean, read-out: Male worm motility inhibition (EC50)): 250 nM
EC50 ([1]; Schistosoma mansoni, 24 h, male, 24 h, individual experiments, read-out: Male worm motility inhibition (EC50), values of independent experiments): 220 nM
EC50 ([1]; Schistosoma mansoni, 48 h, male adult worms, 48 h, single experiment or geometric mean, read-out: Male worm motility inhibition (EC50)): 250 nM
EC50 ([1]; Schistosoma mansoni, 48 h, male, 48 h, individual experiments, read-out: Male worm motility inhibition (EC50), values of independent experiments): 270 nM
EC50 ([1]; Schistosoma mansoni, 72 h, male adult worms, 72 h, single experiment or geometric mean, read-out: Male worm motility inhibition (EC50)): 160 nM
EC50 ([1]; Schistosoma mansoni, 72 h, male, 72 h, individual experiments, read-out: Male worm motility inhibition (EC50), values of independent experiments): 160 nM
EC50 ([1]; Schistosoma mansoni, male, 0-72 h, read-out: EC50 against male adult worms (motility), span over incubation times): ~200 nM
EC50 ([1]; male, 48 h, individual experiments, listed as PZQ (1), read-out: Male worm motility inhibition (EC50), values of independent experiments): 240 nM
EC50 ([1]; male, 72 h, individual experiments, listed as PZQ (1), read-out: Male worm motility inhibition (EC50), values of independent experiments): 170 nM
activation of Fh.TRPMPZQ (Fh.TRPMPZQ): does not activate
activation of Sm.TRPMMCLZ (Sm.TRPMMCLZ): does not activate
in vitro potency against adult worms (S. mansoni; S. mansoni adults): 160 to 750 nM
in vitro potency against schistosomula (S. mansoni; S. mansoni schistosomula): 1300 to 4800 nM
number of juvenile worms with viability score 0 (juvenile schistosomes; 10 μM, Table S1): 56
number of juvenile worms with viability score 1 (juvenile schistosomes; 10 μM, Table S1): 12
number of juvenile worms with viability score 2 (juvenile schistosomes; 10 μM, Table S1): 27
number of juvenile worms with viability score 3 (juvenile schistosomes; 10 μM, Table S1): 14
viability at 10 µM (juvenile schistosomes; Schistosoma mansoni, read-out: Relative frequency of viability score 3): 12.8%
